This is an account of results in ChEMBL document CHEMBL1131731, “Synthesis and evaluation of hapalosin and analogs as MDR-reversing agents” (Bioorg Med Chem Lett, 1999).

SMILES strings stand for the structures. Bounds are passed on as bounds.

Chain of ATP-dependent translocase ABCB1 (P-glycoprotein) (P08183 whole entry): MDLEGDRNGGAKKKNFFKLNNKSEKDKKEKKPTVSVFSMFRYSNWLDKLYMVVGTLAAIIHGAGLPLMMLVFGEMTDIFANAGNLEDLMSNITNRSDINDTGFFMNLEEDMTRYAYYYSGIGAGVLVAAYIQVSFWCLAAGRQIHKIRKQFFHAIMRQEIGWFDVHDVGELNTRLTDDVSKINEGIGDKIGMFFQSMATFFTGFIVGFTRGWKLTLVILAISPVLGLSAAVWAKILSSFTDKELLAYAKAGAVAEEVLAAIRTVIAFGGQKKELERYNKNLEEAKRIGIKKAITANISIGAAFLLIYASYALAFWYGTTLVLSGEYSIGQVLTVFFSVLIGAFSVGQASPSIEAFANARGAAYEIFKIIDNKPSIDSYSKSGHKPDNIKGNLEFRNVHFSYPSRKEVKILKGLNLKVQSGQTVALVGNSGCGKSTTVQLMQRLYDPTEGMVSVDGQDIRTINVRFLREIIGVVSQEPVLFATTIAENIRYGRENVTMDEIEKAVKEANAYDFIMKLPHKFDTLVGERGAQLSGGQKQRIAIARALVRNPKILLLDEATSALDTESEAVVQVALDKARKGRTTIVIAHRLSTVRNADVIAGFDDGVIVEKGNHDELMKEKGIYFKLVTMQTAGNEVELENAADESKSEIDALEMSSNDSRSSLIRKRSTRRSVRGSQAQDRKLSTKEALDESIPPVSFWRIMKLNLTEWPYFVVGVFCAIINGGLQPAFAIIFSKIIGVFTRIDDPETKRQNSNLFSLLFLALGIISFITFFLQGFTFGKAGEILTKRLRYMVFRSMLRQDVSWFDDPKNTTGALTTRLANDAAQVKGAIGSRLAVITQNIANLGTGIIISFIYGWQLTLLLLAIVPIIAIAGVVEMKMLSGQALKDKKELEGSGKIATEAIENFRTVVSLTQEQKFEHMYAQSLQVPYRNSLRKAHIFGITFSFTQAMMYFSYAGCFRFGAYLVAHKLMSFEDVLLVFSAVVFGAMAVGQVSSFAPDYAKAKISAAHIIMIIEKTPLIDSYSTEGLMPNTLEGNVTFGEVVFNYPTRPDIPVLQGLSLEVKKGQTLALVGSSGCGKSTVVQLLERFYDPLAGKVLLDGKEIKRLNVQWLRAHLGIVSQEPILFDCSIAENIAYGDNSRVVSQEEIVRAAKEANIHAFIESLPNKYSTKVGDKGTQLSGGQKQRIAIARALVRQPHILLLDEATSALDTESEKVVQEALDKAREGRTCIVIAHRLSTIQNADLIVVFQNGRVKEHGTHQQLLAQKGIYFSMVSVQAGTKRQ

The first data set deals with ATP-dependent translocase ABCB1 (Homo sapiens, UniProt P08183). The data set is described as follows: (§1) Ratio of IC50 of cytotoxicity to the IC50 of MDR- reversal for P388/VMDRC.04 cells. The data set is classed as functional, cell-based. The following applies: mouse.
Chain of ATP-dependent translocase ABCB1 (P08183 whole entry): as above
Consider `CCCCCCC[C@H]1OC(=O)C[C@H](OCOC)[C@H](Cc2ccccc2)N(C)C(=O)[C@H](C(C)C)OC(=O)[C@H]1C` (stereo in doubt; 22), for which the Ratio stood at 6.2.

A further data set has as its target ATP-dependent translocase ABCB1 (P-glycoprotein) (Homo sapiens, UniProt P08183). The data set is described as §1. The conditions noted are these: mouse, P388/VMDRC.04 cells. The data set is classed as functional, cell-based.
For the molecule `CCCCCCC[C@H]1OC(=O)C[C@H](O)[C@H](Cc2ccccc2)N(C)C(=O)[C@H](C(C)C)OC(=O)[C@H]1C` [listing 1 of 2 here], the selectivity ratio is 5.4.

`CCCC[C@H]1OC(=O)C[C@H](O)[C@H](Cc2ccccc2)N(C)C(=O)COC(=O)[C@H]1C`: the selectivity ratio is more than 4.4.

Consider `CCCCCCC[C@H]1OC(=O)C[C@@H](O)[C@H](Cc2ccccc2)N(C)C(=O)COC(=O)[C@H]1C`, for which the selectivity ratio came out at 3.8.

For `CCCCCCC[C@H]1OC(=O)C[C@H](O)[C@H](Cc2ccccc2)N(C)C(=O)[C@H](C(C)C)OC(=O)[C@H]1C` [listing 2 of 2 here], the selectivity ratio was found to be 7.4.

Consider `COCO[C@@H]1CC(=O)O[C@H](C)[C@H](C)C(=O)O[C@@H](C(C)C)C(=O)N(C)[C@H]1Cc1ccccc1`, for which the selectivity ratio was more than 10.

Consider `CCCCCCC[C@H]1OC(=O)C[C@H](O)[C@H](Cc2ccccc2)N(C)C(=O)C(C)(C)OC(=O)[C@H]1C`, for which the selectivity ratio is 6.6.

Take `CCCCCCC[C@@H]1CC(=O)O[C@@H](C(C)C)C(=O)N(C)[C@@H](Cc2ccccc2)[C@H](O)CC(=O)O1`: the selectivity ratio was 3.8.

On to `CC(C)[C@@H]1OC(=O)[C@@H](C)[C@@H](C)OC(=O)C[C@@H](O)[C@H](Cc2ccccc2)N(C)C1=O`, for which the selectivity ratio is more than 9.

As to `COC(=O)C[C@@H](O)[C@H](Cc1ccccc1)N(C)C(=O)OCc1ccccc1`, the selectivity ratio is 5.2.

On to `COCO[C@H]1CC(=O)O[C@H](C)[C@H](C)C(=O)OCC(=O)N(C)[C@H]1Cc1ccccc1`, for which the selectivity ratio was more than 2.3.

In the case of `CC(C)[C@@H]1OC(=O)[C@@H](C)COC(=O)C[C@@H](O)[C@H](Cc2ccccc2)N(C)C1=O`, the selectivity ratio is more than 7.5.

For `CCCCCCC[C@@H]1CC(=O)O[C@@H](C(C)C)C(=O)N(C)[C@@H](Cc2ccccc2)[C@H](OCOC)CC(=O)O1`, the selectivity ratio was found to be 5.7.

Turning to `CCCC[C@H]1OC(=O)C[C@H](OCOC)[C@H](Cc2ccccc2)N(C)C(=O)COC(=O)[C@H]1C`, the selectivity ratio was more than 8.5.

For `COCO[C@H](CC(=O)OC)[C@H](Cc1ccccc1)N(C)C(=O)OCc1ccccc1`, the selectivity ratio came to 5.7.

For `CCCCCCC[C@H]1OC(=O)C[C@@H](OCOC)[C@H](Cc2ccccc2)N(C)C(=O)COC(=O)[C@H]1C`, the selectivity ratio turned out to be 6.5.

For `CCCCCCC[C@H]1OC(=O)C[C@@H](OCOC)[C@H](Cc2ccccc2)N(C)C(=O)[C@H](C)OC(=O)[C@H]1C`, the selectivity ratio came to 3.2.

Consider `CCCCCCC[C@H]1OC(=O)C[C@H](OCOC)[C@H](Cc2ccccc2)N(C)C(=O)C(C)(C)OC(=O)[C@H]1C`, for which the selectivity ratio came out at 3.5.

On to `COCO[C@@H]1CC(=O)OC[C@H](C)C(=O)O[C@@H](C(C)C)C(=O)N(C)[C@H]1Cc1ccccc1`, for which the selectivity ratio is more than 15.9.

For `CCCCCCC[C@H]1OC(=O)CC[C@H](Cc2ccccc2)N(C)C(=O)[C@H](C(C)C)OC(=O)[C@H]1C`, the selectivity ratio was 5.6.

Take `CCCCCCC[C@@H](O)[C@H](C)C(=O)O[C@H](C(=O)OC)C(C)C`: the selectivity ratio was more than 5.2.

Take `CCCCCCC[C@H]1OC(=O)C[C@@H](OCOC)[C@H](Cc2ccccc2)N(C)C(=O)[C@H](C(C)C)OC(=O)[C@H]1C`: the selectivity ratio turned out to be 5.7.

In the case of `CCCCCCC[C@H]1OC(=O)C[C@@H](O)[C@H](Cc2ccccc2)N(C)C(=O)[C@H](C)OC(=O)[C@H]1C`, the selectivity ratio came to 4.3.

`CCCCCCC[C@H]1OC(=O)C[C@H](OCOC)[C@H](Cc2ccccc2)N(C)C(=O)[C@H](C(C)C)OC(=O)[C@H]1C` (stereo in doubt; 14): the selectivity ratio was 7.5.

Consider `CCCCCCC[C@H]1OC(=O)C[C@@H](O)[C@H](Cc2ccccc2)N(C)C(=O)[C@H](C(C)C)OC(=O)[C@H]1C` [HAPALOSIN], for which the selectivity ratio is 3.

Biological target in another data set: not listed separately
Briefly: Evaluated for cytotoxicity using P388/VMDRC.04 cells (a subline of P388 murine leukemia cells expressing human recombinant human P-glycoprotein) in the absence of 10 nM vincristine.
Settings: not given
For the molecule `CC(C)[C@@H]1OC(=O)[C@@H](C)COC(=O)C[C@@H](O)[C@H](Cc2ccccc2)N(C)C1=O`, the half-inhibitory concentration (IC50) is more than 100 µM.

As to `CCCCCCC[C@@H](O)[C@H](C)C(=O)OC`, the IC50 is more than 100 µM.

On to `CCCC[C@H]1OC(=O)C[C@H](OCOC)[C@H](Cc2ccccc2)N(C)C(=O)COC(=O)[C@H]1C`, for which the IC50 is more than 100 µM.

Regarding `CCCCCCC[C@H]1OC(=O)C[C@@H](OCOC)[C@H](Cc2ccccc2)N(C)C(=O)[C@H](C(C)C)OC(=O)[C@H]1C`, the IC50 turned out to be 34.9 µM.
